Results taken from patent publication US20110064773A1, “PHARMACEUTICAL COMPOSITIONS COMPRISING A THYROID HORMON AND THEIR THERAPEUTIC USE” (UNIVERSITE JOSEPH FOURIER, priority 2007, published 2011).
“Also recorded” adds a separate entry of the source.

Tests used:
Type in all cases: in vivo, rat
Wistar rats [1] = test: OGTT in Wistar rats fed a high fat high sucrose diet; conditions: 8 weeks high fat high sucrose diet, rT3 2.5 μg/100 g, vs placebo
Experimental: A clinically relevant situation of a nutritionally-induced insulin resistance is known as a high fat high sucrose diet (HF). Therefore, the effects of rT3 on glucose and insulin response to an OGTT test were investigated. Wistar rats were fed a diet containing 45.5% fat (38% lard and 7.5% soy oil) and 34% carbohydrate (25% as sucrose) for 8 weeks. OGTT was performed as described above.

Wistar rats [2] = test: Body composition (adipose tissues, skeletal muscles, brown adipose tissue) of Wistar rats; conditions: for White adipose tissue mass / Brown adipose tissue: 2.5 μg/100 g continuous
Excerpt: At the end of the experimental period, animals were sacrificed by decapitation, in order to avoid the well-known effects of general anesthetics on mitochondrial metabolism. Blood samples were immediately collected and plasma was frozen for subsequent determination of serum metabolites and hormones. Liver, muscles and fat depots were quickly excised and weighed. Liver median lobe was rapidly freeze-clamped. Muscles (plantaris, soleus and gastrocnemius) were frozen in isopentane precooled in liquid nitrogen. Mesenteric fat consisted of adipose tissue surrounding the gastro-intestinal tract from the gastro-oesophageal sphincter to the end of the rectum with special care taken in distinguishing and removing the pancreas. Retroperitoneal fat pad was taken as the distinct depot behind each kidney along the lumbar muscles. Epididymal fat consisted of adipose tissue on top of the epididymis. For subcutaneous depot measurement, a rectangular piece of skin was taken on the right side of each animal from the median line of the abdomen between the spine and the right hip to the first rib. Interscapular brown adipose tissue was removed and dissected free from adjacent muscles and white adipose tissue. The heart ventricles, the right kidney and the spleen were also excised, weighed and frozen.

liver mitochondria = test: Rate of liver mitochondrial oxygen consumption (JO2) of treated Wistar rats; conditions: vs placebo
Experimental: The major part of the liver and the red part of each quadriceps were rinsed, and chopped into isolation medium (250 mM sucrose, 20 mM Tris-HCl and 1 mM EGTA-Tris, pH 7.4). Nuclei and cell debris were removed by centrifugation at 800 g for 10 min. Mitochondria were then isolated from the supernatant by spinning twice at 8,000 g for 10 minutes. The mitochondrial pellet was resuspended in 0.5 ml of isolation buffer and kept on ice. Mitochondrial protein was measured by the bicinchoninic acid method (Pierce, Rockford, Ill.). The final mitochondrial suspensions were maintained on ice and were used for measurements of oxygen consumption rate.
The rate of mitochondrial oxygen consumption (JO2) was measured at 30° C. in an incubation chamber with a Clark-type O2 electrode filled with 2 ml of incubation medium (125 mM KCl, 10 mM Pi-Tris, 20 mM Tris-HCl, 0.1 mM EGTA, pH 7.2). All measurements were performed using mitochondria (1.0 or 0.2 mg mitochondrial protein/ml for liver and skeletal muscle) incubated either with various substrates: glutamate/malate (5 mM/2.5 mM) and succinate (5 mM), alone or in combination, palmitoyl carnitine (55 μM) and octanoyl carnitine (100 μM). For each substrate, JO2 was recorded in the presence of the substrate alone (State 2) and following the addition of 1 mM ADP (state 3). Oligomycin (1.25 μg/mg protein) was added to the mitochondrial suspension to determine the non-phosphorylating respiratory rate (state 4). The incubation medium was constantly stirred with a built-in electromagnetic stirrer and bar flea. The efficiency of the mitochondrial oxidative phosphorylation was assessed by the state 3/state 4 ratio which measures the degree of control imposed on oxidation by phosphorylation (respiratory control ratio, RCR).

Wistar rats [3] = test: Growth rate (body weight) and food intake of Wistar rats; conditions: ultra low dose 0.25 μg/100 g BW, vs placebo
[4] = 25 μg/100 g BW/day, continuous subcutaneous pellet, 8 days
[5] = 250 μg/kg BW pellet, three weeks, vs placebo, p<0.01
[6] = high dose 25 μg/100 g BW pellet, three weeks, vs placebo
[7] = low dose 2.5 μg/100 g BW, sub-cutaneous pellet, 21 days
[8] = high dose 250 μg/kg BW/day, various substrates

N[C@@H](Cc1ccc(Oc2cc(I)c(O)c(I)c2)c(I)c1)C(=O)O [rT3, 3′,5′,3-triiodothyronine]
Blood glucose, area under the curve (AUC) after OGTT (Wistar rats [1]): significant lowering
Blood glucose, change over time of plasma concentration after OGTT (Wistar rats [1]): significant lowering
Insulin levels, AUC after OGTT (Wistar rats [1]): significantly lower
Insulin levels, changes over time after OGTT (Wistar rats [1]): significantly lower
White adipose tissue mass (Wistar rats [2]; intra-peritoneal osmotic pump, 21 days): significant reduction
Brown adipose tissue (Wistar rats [2]; intra-peritoneal pump, 21 days): all treatments were effective
White adipose tissue mass (Wistar rats [2]; sub-cutaneous osmotic pump, 21 days): significant reduction
Brown adipose tissue (Wistar rats [2]; sub-cutaneous pump, 21 days): more significantly enhanced
Muscular mass (Wistar rats [2]; 25 μg/100 g BW, 8 days, whatever the administration (pellet, IP, per os, sc)): unchanged
White fatty (adipose) tissue mass (Wistar rats [2]; 25 μg/100 g BW, daily intra-peritoneal injection, 8 days): have not effects
White fatty (adipose) tissue mass (Wistar rats [2]; 25 μg/100 g BW, daily oral administration, 8 days): have not effects
White fatty (adipose) tissue mass (Wistar rats [2]; 25 μg/100 g BW, daily sub-cutaneous injection, 8 days): have not effects
Brown adipose tissue mass (Wistar rats [2]; [4]): significantly enhanced
White fatty (adipose) tissue mass (Wistar rats [2]; [4]): significant white fatty tissue mass reduction
Epididymal fat mass (Wistar rats [2]; 250 μg/kg BW pellet, three weeks, vs placebo): not different
Mesenteric fat mass (Wistar rats [2]; [5]): significantly lower
Retroperitoneal fat mass (Wistar rats [2]; [5]): significantly lower
Subcutaneous fat mass (Wistar rats [2]; [5]): significantly lower
Brown adipose tissue mass (Wistar rats [2]; [6]): significantly increased; also recorded: high increase
Muscle mass (lean body mass) (Wistar rats [2]; [6]): not affected at all; also recorded: do not affect
Muscle tissues mass (Wistar rats [2]; low dose 2.5 μg/100 g BW): do not affect
Brown adipose tissue mass (Wistar rats [2]; [7]): intermediate increase; also recorded: more significantly enhanced
White adipose tissue mass (fat mass) (Wistar rats [2]; [7]): reduces the fat mass with a lower efficiency; also recorded: significant reduction
Liver mitochondrial respiratory rate, non-phosphorylating (state 4, oligomycin) (liver mitochondria; [8]): much higher as compared to placebo; also recorded: dose-dependent increase
Liver mitochondrial respiratory rate, phosphorylating (state 3, ADP) (liver mitochondria; [8]): very significant increased respiratory rate; also recorded: dose-dependent increase
Liver mitochondrial respiratory rate, non-phosphorylating (state 4) (liver mitochondria; low dose 25 μg/kg BW/day): decreased efficiency; also recorded: dose-dependent increase
Liver mitochondrial respiratory rate, phosphorylating (state 3) (liver mitochondria; low dose 25 μg/kg BW/day): higher maximal respiratory capacity; also recorded: dose-dependent increase
Body weight (Wistar rats [3]): also reduce the body weight
